Data reported in ChEMBL document CHEMBL1150341, “Anti-Helicobacter pylori activity of derivatives of the phthalide-containing antibacterial agents spirolaxine methyl ether, CJ-12,954, CJ-13,013, CJ-13,102, CJ-13,104, CJ-13,108 and CJ-13,015” (2008).
Converted amounts (≈) assume the structure as drawn.

How the values were obtained:
Format in all cases: functional
Helicobacter pylori [1] = test: Antibacterial activity against Helicobacter pylori NCTC-11637 after 24 hrs; conditions: NCTC-11637, 24 h
Helicobacter pylori [2] = test: Antibacterial activity against Helicobacter pylori NCTC-11637 after 5 days by serial dilution method
Helicobacter pylori [3] = test: Antibacterial activity against Helicobacter pylori NCTC-11637 assessed as zone of inhibition at 500 ug/disk; conditions: read-out: IZ
Helicobacter pylori [4] = test: Antibacterial activity against Helicobacter pylori assessed NCTC-11637 as zone of inhibition at 0.02 ug/disk; conditions: read-out: IZ
Helicobacter pylori [5] = test: Antibacterial activity against Helicobacter pylori NCTC-11637 assessed as zone of inhibition at 0.5 ug/disk; conditions: read-out: IZ
Helicobacter pylori [6] = test: Antibacterial activity against Helicobacter pylori assessed NCTC-11637 as zone of inhibition at 0.01 ug/disk; conditions: read-out: IZ
Helicobacter pylori [7] = test: Antibacterial activity against Helicobacter pylori assessed NCTC-11637 as zone of inhibition at 2 ug/disk; conditions: read-out: IZ
Helicobacter pylori [8] = test: Antibacterial activity against Helicobacter pylori NCTC-11637 assessed as zone of inhibition at 10 ug/disk; conditions: read-out: IZ
[9] = Helicobacter pylori, 120 h, read-out: MBC

Compound	MIC (Helicobacter pylori [1])	MBC (Helicobacter pylori [2]; [9])	further results
COc1cc(OC)c2ccn(CCCC3CCCC4(CCCCO4)O3)c2c1 (stereo not drawn)	20 µg/mL (≈ 53.5 µM)	40 µg/mL (≈ 107 µM)	–
COc1cc(OC)c2c(c1)[C@H](CCCCCC[C@H]1CC[C@@]3(CC[C@H](C)O3)O1)OC2=O	20 µg/mL (≈ 47.8 µM)	100 µg/mL (≈ 239 µM)	–
COc1cc(OC)c2c(c1)[C@@H](CCCCCC[C@H]1CC[C@@]3(CC[C@H](C)O3)O1)OC2=O	0.3 µg/mL (≈ 0.717 µM)	0.3 µg/mL (≈ 0.717 µM)	–
COc1cc(OC)c2c(c1)[C@H](CCCCCC[C@H]1CC[C@]3(CC[C@H](C)O3)O1)OC2=O	20 µg/mL (≈ 47.8 µM)	100 µg/mL (≈ 239 µM)	–
COc1cc(OC)c2c(c1)C(CCCCCCCCCCCCC(C)O)OC2=O (stereo not drawn)	12.5 µg/mL (≈ 30.7 µM)	50 µg/mL (≈ 123 µM)	zone of inhibition at 500 µg/disc (Helicobacter pylori [3]): 15 mm
COc1cc(OC)c2c(c1)C(CCCCCCC1CCC3(CCC(C)O3)O1)OC2=O (stereo in doubt)	0.02 µg/mL (≈ 0.0478 µM)	–	MBC (Helicobacter pylori [2]): 0.2 µg/mL (≈ 0.478 µM)
COc1cc(OC)c2c(c1)C(CCCCCCC1CCC3(CCC(C)O3)O1)OC2=O (stereo in doubt; 5)	–	–	zone of inhibition at 0.02 µg/disc (Helicobacter pylori [4]): 15 mm; MBC (Helicobacter pylori [2]): 0.02 µg/mL (≈ 0.0478 µM)
COc1cc(OC)c2c(c1)C(CCCCCCCCCC(CCC(C)=O)OC(C)=O)OC2=O (stereo not drawn)	1.25 µg/mL (≈ 2.7 µM)	2.5 µg/mL (≈ 5.4 µM)	zone of inhibition at 0.5 µg/disc (Helicobacter pylori [5]): 15 mm
COc1cc(OC)c2c(c1)[C@@H](CCCCCC[C@H]1CC[C@]3(CC[C@H](C)O3)O1)OC2=O	0.3 µg/mL (≈ 0.717 µM)	0.3 µg/mL (≈ 0.717 µM)	–
COc1cc(OC)c2c(c1)[C@@H](CCCCC[C@H]1CCC[C@]3(CC[C@H](C)O3)O1)OC2=O	0.125 µg/mL (≈ 0.299 µM)	0.125 µg/mL (≈ 0.299 µM)	–
COc1cc(OC)c2ccn(CCCCCCCCCC(CCC(C)=O)OC(C)=O)c2c1 (stereo not drawn)	> 100 µg/mL	> 100 µg/mL	–
COc1cc(OC)c2ccn(CCCCCCCCCC(=O)CCC(C)=O)c2c1	10 µg/mL (≈ 24.9 µM)	20 µg/mL (≈ 49.8 µM)	–
COc1cc(OC)c2ccn(CCCCCCCCC(C)=O)c2c1	5 µg/mL (≈ 15.1 µM)	10 µg/mL (≈ 30.2 µM)	–
COc1cc(OC)c2c(c1)[C@@H](CCCCC[C@H]1CCC[C@]3(CC[C@@H](C)O3)O1)OC2=O	0.5 µg/mL (≈ 1.19 µM)	1 µg/mL (≈ 2.39 µM)	–
COc1cc(O)cc2c1C(=O)OC2CCCCCC1CCCC2(CCC(C)O2)O1 (stereo not drawn) [SPIROLAXINE]	0.2 µg/mL (≈ 0.494 µM)	> 2 µg/mL	zone of inhibition at 0.01 µg/disc (Helicobacter pylori [6]): 15 mm
COc1cc(OC)c2c(c1)C(CCCCCCCCCC(=O)CCC(C)=O)OC2=O (stereo not drawn)	2.5 µg/mL (≈ 5.97 µM)	5 µg/mL (≈ 11.9 µM)	zone of inhibition at 2 µg/disc (Helicobacter pylori [7]): 15 mm
COc1cc(OC)c2ccn(CCCCCCCCCCCCC(C)O)c2c1 (stereo not drawn)	> 100 µg/mL	> 100 µg/mL	–
COc1cc(OC)c2c(c1)C(CCCCCCCCCCCCC(C)=O)OC2=O (stereo not drawn)	10 µg/mL (≈ 24.7 µM)	10 µg/mL (≈ 24.7 µM)	zone of inhibition at 10 µg/disc (Helicobacter pylori [8]): 15 mm
COc1cc(OC)c2ccn(CCCCCCCCCCCCC(C)=O)c2c1	50 µg/mL (≈ 129 µM)	50 µg/mL (≈ 129 µM)	–
